From patent US10287276B2, “Heteroaryl-1,2,4-triazole and heteroaryl-tetrazole compounds for controlling ectoparasites” (Elanco Tiergesundheit AG, priority 2016, dated 2019)

How the values were obtained:
[1] = tested on: Rhipicephalus sanguineus Nymphs; assay: Activity in vivo against Rhipicephalus sanguineus nymphs on Mongolian gerbils; settings: topical, 0 h, pour on application day 0, tick number reduction vs placebo, Abbott's formula, read-out: efficacy (EC90)
Protocol: On day 0, gerbils are treated with the test compound at a given dose by pour on application. On day +1 (+2), the animals are infested with nymphs of R. sanguineus. Ticks are left on the animals until full repletion. Seven days after infestation nymphs dropped off fully engorged are collected and counted. They are kept until molting to also evaluate growth regulating activity of the test compound. Efficacy in killing (and growth regulating) is expressed as a tick number (and molted tick number) reduction in comparison with a placebo treated group, using the Abbott's formula:
n=number of live ticks. T=treated group. Co=control/placebo group.

[2] = tested on: Lucilla Cuprina (Australian sheep blowfly); assay: Activity in vitro against Lucilla cuprina (Australian sheep blowfly), Assay A; settings: Lucilia cuprina, 96 h; at 32 ppm; eggs on agar-based medium, 4 days at 28° C. and 60% relative humidity; read-out: efficacy (EC80)
Protocol: Activity in vitro against Lucilla Cuprina (Australian sheep blowfly)—Assay A
Freshly laid blowfly eggs are used to seed a suitably formatted microplate containing the test substances to be evaluated for antiparasitic activity. Each compound is tested by serial dilution in order to determine its minimum efficacy dose. The test compounds are embedded in an agar-based nutritive medium allowing the full development of the eggs into 3rd instar larvae. The incubation lasts for 4 days at 28° C. and 60% relative humidity. Egg-hatching and ensuing larval development are also recorded to identify a possible growth-regulating activity.

[3] = tested on: Engorged Female Rhipicephalus microplus (Cattle Tick); assay: Activity in vitro against engorged female Rhipicephalus microplus (cattle tick), contact test; settings: 672 h, organophosphorous-resistant Ultimo strain, evaluation 28 days later on mortality, oviposition and hatched larvae, read-out: efficacy (EC80)
Protocol: Activity In Vitro Against Engorged Female Rhipicephalus microplus (Cattle Tick)
A contact test is performed by pre-coating 6-well microplates with serial dilution of the compound to be evaluated for anti-parasitic activity. 10 engorged female ticks of the organophosphorous-resistant Ultimo strain are distributed to each well in triplicates. Plates are then incubated at 28° C. and 80% relative humidity. Evaluation takes place 28 days later based on mortality, oviposition and hatched larvae. […] Activity In Vivo Against Rhipicephalus sanguineus Nymphs on Mongolian Gerbils (Meriones unguiculatus) (Spray Application)

[4] = tested on: Ctenocephalides Felis (Cat Flea); assay: Activity in vitro against Ctenocephalides felis (cat flea), Assay A; settings: Ctenocephalides felis; at 100 ppm; adult fleas fed on treated blood for 24 h; dead fleas counted; read-out: efficacy (EC80)
Protocol: Activity In Vitro Against Ctenocephalides Felis (Cat Flea)—Assay A
A mixed adult population of fleas is placed in a suitably formatted 96-well plate allowing fleas to access and feed on treated blood via an artificial feeding system. Fleas are fed on treated blood for 24 h, after which the compound effect is recorded. Insecticidal activity is determined on the basis of the number of dead fleas recovered from the feeding system.

[5] = tested on: Rhipicephalus sanguineus (Dog Tick); assay: Activity in vitro against Rhipicephalus sanguineus (dog tick), Assay A, contact test; settings: Rhipicephalus sanguineus, 168 h, at 100 ppm, adult ticks, 28° C. and 80% relative humidity for 7 days, read-out: efficacy (EC80)
Protocol: Activity In Vitro Against Rhipicephalus sanguineus (Dog Tick)—Assay A
A contact test is performed by pre-coating microplate with serial dilution of compound allowing evaluating anti-parasitic activity by contact against ticks. A mixed adult tick population is then distributed to each well of the plate and incubated at 28° C. and 80% relative humidity for 7 days, during which the effect of the test compound is monitored. Acaricidal activity is confirmed if and when adult ticks are dead.

Lice (Polyplax serrata) = assay: Activity in vivo against lice (Polyplax serrata) in mice (topical); settings: pour-on application, live lice on day +4 and +14, Henderson & Tilton formula, read-out: efficacy (EC90)
Protocol: Activity In Vivo Against Lice (Polyplax serrata) in Mice (Topical) Mice naturally infected with P. serrata are treated with the formulated test compound on day 0 by pour-on application. On day +4 and +14, efficacy is evaluated by counting the number of live lice under a binocular. Efficacy at the two time points is expressed as a comparison of lice numbers counted on the same mouse before treatment, using the Henderson & Tilton formula, taking also into account lice numbers found on mice treated with the empty formulation (placebo group): [formula] n=number of lice, T=treated group, Co=control/placebo group.

[6] = tested on: Ctenocephalides Felis (Cat Flea); assay: Activity in vitro against Ctenocephalides felis (cat flea), Assay B; settings: Ctenocephalides felis; at 10 ppm in bovine blood; % mortality at 48 hours post infestation; read-out: efficacy (EC50)
Protocol: Activity In Vitro Against Ctenocephalides Felis (Cat Flea)—Assay B
Test compounds are added to organic bovine blood contained in an artificial feeding container. Compounds with known insecticidal activity are included to serve as positive controls. Newly emerged unfed adult fleas from a laboratory colony are aspirated into each vial. The test cages are maintained using the artificial feeding apparatus to allow ingestion of compound. Fleas are evaluated for % mortality at 48 hours post infestation. Fleas showing normal movement and/or jumping ability are considered viable and those showing no movement are scored as dead.

CCCN(C(=O)c1cc(Cl)cc(C(F)(F)F)c1)C(C)c1ncnn1-c1ccccn1 (stereo not drawn) [Example 8, 3-Chloro-N-propyl-N-[1-[2-(2-pyridyl)-1,2,4-triazol-3-yl]ethyl]-5-(trifluoromethyl)benzamide]
inhibition in vivo at 32 mg/kg [1]: > 90%
pest or weed control at 32 ppm [2]: > 80%
pest or weed control at 200 ppm [3]: > 80%
pest or weed control at 100 ppm [4]: > 80%

CC(c1ncnn1-c1ccccn1)N(CC1CC1)C(=O)c1cncc(C(F)(F)F)c1 (stereo not drawn) [Example 9, N-(Cyclopropylmethyl)-N-[1-[2-(2-pyridyl)-1,2,4-triazol-3-yl]ethyl]-5-(trifluoromethyl)pyridine-3-carboxamide]
pest or weed control at 100 ppm [5]: > 80%
inhibition in vivo at 32 mg/kg [1]: > 90%
pest or weed control at 32 ppm [2]: > 80%
pest or weed control at 200 ppm [3]: > 80%
pest or weed control at 100 ppm [4]: > 80%

CC(c1ncnn1-c1ccccn1)N(CC#N)C(=O)c1cc(C(F)(F)F)cc(C(F)(F)F)c1 (stereo not drawn) [Example 14, N-(Cyanomethyl)-N-[1-[2-(2-pyridyl)-1,2,4-triazol-3-yl]ethyl]-3,5-bis(trifluoromethyl)benzamide]
pest or weed control at 100 ppm [5]: > 80%
inhibition in vivo at 32 mg/kg [1]: > 90%
pest or weed control at 32 ppm [2]: > 80%
pest or weed control at 200 ppm [3]: > 80%
pest or weed control at 100 ppm [4]: > 80%

C#CCN(C(=O)c1cc(C(F)(F)F)cc(C(F)(F)F)c1)C(C)c1ncnn1-c1ccccn1 (stereo not drawn) [Example 15]
pest or weed control at 100 ppm [5]: > 80%
inhibition in vivo at 32 mg/kg (Lice (Polyplax serrata)): > 90%
pest or weed control at 32 ppm [2]: > 80%
pest or weed control at 200 ppm [3]: > 80%
pest or weed control at 100 ppm [4]: > 80%

CC(c1ncnn1-c1ncccn1)N(CCF)C(=O)c1cc(Cl)cc(C(F)(F)F)c1 (stereo not drawn) [Example 23, 3-Chloro-N-(2-fluoroethyl)-N-[1-(2-pyrimidin-2-yl-1,2,4-triazol-3-yl)ethyl]-5-(trifluoromethyl)benzamide]
inhibition in vivo at 32 mg/kg [1]: > 90%
pest or weed control at 32 ppm [2]: > 80%
pest or weed control at 200 ppm [3]: > 80%

CC(c1ncnn1-c1ncccn1)N(CCCF)C(=O)c1cc(Cl)cc(C(F)(F)F)c1 (stereo not drawn) [Example 24, 3-Chloro-N-(3-fluoropropyl)-N-[1-(2-pyrimidin-2-yl-1,2,4-triazol-3-yl)ethyl]-5-(trifluoromethyl)benzamide]
pest or weed control at 100 ppm [5]: > 80%
inhibition in vivo at 32 mg/kg (Lice (Polyplax serrata)): > 90%
pest or weed control at 32 ppm [2]: > 80%
pest or weed control at 200 ppm [3]: > 80%
pest or weed control at 100 ppm [4]: > 80%

CC(c1ncnn1-c1ncccn1)N(CCC(F)(F)F)C(=O)c1cc(Cl)cc(C(F)(F)F)c1 (stereo not drawn) [Example 26, 3-Chloro-N-[1-(2-pyrimidin-2-yl-1,2,4-triazol-3-yl)ethyl]-5-(trifluoromethyl)-N-(3,3,3-trifluoropropyl)benzamide]
pest or weed control at 100 ppm [5]: > 80%
inhibition in vivo at 32 mg/kg [1]: > 90%
pest or weed control at 32 ppm [2]: > 80%
pest or weed control at 100 ppm [4]: > 80%

CC(c1ncnn1-c1ncccn1)N(CC1CC1)C(=O)c1cncc(C(F)(F)F)c1 (stereo not drawn) [Example 28, N-(Cyclopropylmethyl)-N-[1-(2-pyrimidin-2-yl-1,2,4-triazol-3-yl)ethyl]-5-(trifluoromethyl)pyridine-3-carboxamide]
pest or weed control at 100 ppm [5]: > 80%
inhibition in vivo at 32 mg/kg (Lice (Polyplax serrata)): > 90%
inhibition in vivo at 32 mg/kg [1]: > 90%
pest or weed control at 32 ppm [2]: > 80%
pest or weed control at 100 ppm [4]: > 80%

CC(c1ncnn1-c1ncccn1)N(CCC(F)(F)F)C(=O)c1cncc(C(F)(F)F)c1 (stereo not drawn) [Example 29, N-[1-(2-Pyrimidin-2-yl-1,2,4-triazol-3-yl)ethyl]-5-(trifluoromethyl)-N-(3,3,3-trifluoropropyl)pyridine-3-carboxamide]
pest or weed control at 100 ppm [5]: > 80%
inhibition in vivo at 32 mg/kg [1]: > 90%
pest or weed control at 32 ppm [2]: > 80%
pest or weed control at 100 ppm [4]: > 80%

CC(c1ncnn1-c1ncccn1)N(CCCF)C(=O)c1cncc(C(F)(F)F)c1 (stereo not drawn) [Example 31, N-(3-Fluoropropyl)-N-[1-(2-pyrimidin-2-yl-1,2,4-triazol-3-yl)ethyl]-5-(trifluoromethyl)pyridine-3-carboxamide]
pest or weed control at 100 ppm [5]: > 80%
inhibition in vivo at 32 mg/kg [1]: > 90%
pest or weed control at 32 ppm [2]: > 80%
pest or weed control at 100 ppm [4]: > 80%

C#CCN(C(=O)c1cc(Cl)cc(OC(F)(F)F)c1)C(C)c1ncnn1-c1ncccn1 (stereo not drawn) [Example 36, 3-Chloro-N-prop-2-ynyl-N-[1-(2-pyrimidin-2-yl-1,2,4-triazol-3-yl)ethyl]-5-(trifluoromethoxy)-benzamide]
pest or weed control at 100 ppm [5]: > 80%
inhibition in vivo at 32 mg/kg (Lice (Polyplax serrata)): > 90%
pest or weed control at 32 ppm [2]: > 80%
pest or weed control at 200 ppm [3]: > 80%
pest or weed control at 100 ppm [4]: > 80%

CC(c1ncnn1-c1ncccn1)N(CC1CC1)C(=O)c1cccc(C#N)c1 (stereo not drawn) [Example 38, 3-Cyano-N-(cyclopropylmethyl)-N-[1-(2-pyrimidin-2-yl-1,2,4-triazol-3-yl)ethyl]benzamide]
pest or weed control at 100 ppm [5]: > 80%
inhibition in vivo at 32 mg/kg (Lice (Polyplax serrata)): > 90%
pest or weed control at 32 ppm [2]: > 80%
pest or weed control at 200 ppm [3]: > 80%
pest or weed control at 100 ppm [4]: > 80%

C[C@@H](c1ncnn1-c1ccccn1)N(CC1CC1)C(=O)c1cc(C(F)(F)F)cc(C(F)(F)F)c1 [Example 44, N-(Cyclopropylmethyl)-N-[(1S)-1-[2-(2-pyridyl)-1,2,4-triazol-3-yl]ethyl]-3,5-bis(trifluoromethyl)benzamide]
inhibition in vivo at 32 mg/kg [1]: > 90%
pest or weed control at 32 ppm [2]: > 80%
pest or weed control at 200 ppm [3]: > 80%
pest or weed control at 100 ppm [4]: > 80%

C[C@@H](c1ncnn1-c1ncccn1)N(CC1CC1)C(=O)c1cncc(C(F)(F)F)c1 [Example 45, N-(Cyclopropylmethyl)-N-[(1S)-1-(2-pyrimidin-2-yl-1,2,4-triazol-3-yl)ethyl]-5-(trifluoromethyl)pyridine-3-carboxamide]
inhibition in vivo at 32 mg/kg [1]: > 90%
pest or weed control at 32 ppm [2]: > 80%
pest or weed control at 200 ppm [3]: > 80%
pest or weed control at 100 ppm [4]: > 80%

C[C@@H](c1ncnn1-c1ncccn1)N(CC1CC1)C(=O)c1cc(C(F)(F)F)cc(C(F)(F)F)c1 [Example 49, N-(Cyclopropylmethyl)-N-[(1S)-1-(2-pyrimidin-2-yl-1,2,4-triazol-3-yl)ethyl]-3,5-bis(trifluoromethyl)benzamide]
pest or weed control at 100 ppm [5]: > 80%
inhibition in vivo at 32 mg/kg (Lice (Polyplax serrata)): > 90%
inhibition in vivo at 32 mg/kg [1]: > 90%
pest or weed control at 32 ppm [2]: > 80%
pest or weed control at 100 ppm [4]: > 80%

CC(NC(=O)c1cccc(C#N)c1)c1ncnn1-c1ncccn1 (stereo not drawn) [Example 52, 3-Cyano-N-[1-(2-pyrimidin-2-yl-1,2,4-triazol-3-yl)ethyl]benzamide]
pest or weed control at 10 ppm [6]: > 50%

CC(c1ncnn1-c1ncccn1)N(C)C(=O)c1cccc(C(N)=S)c1 (stereo not drawn) [Example 71, 3-Carbamothioyl-N-methyl-N-[1-(2-pyrimidin-2-yl-1,2,4-triazol-3-yl)ethyl]benzamide]
pest or weed control at 10 ppm [6]: > 50%
